# Paper PMC11360180, “Enhancement of Antimicrobial Function by L/D-Lysine Substitution on a Novel Broad-Spectrum Antimicrobial Peptide, Phylloseptin-TO2: A Structure-Related Activity Research Study” (Pharmaceutics, 2024)
# “And” between values parts separate entries of the source, which are not always exact repeats. Equal entries are not always repeated. Where two headings read alike, the source gives them in different places. Where a SMILES comes first, the peptide text is derived from it. Where no end group is shown, it is not given here. [ ]: non-standard residue; d: D form.
# Experiments:
# [1] = test system: E. coli (ATCC 8739) biofilm; type: cell-based, Escherichia coli; settings: ATCC 8739, 24 h
# Protocol: (§1) To test the anti-biofilm ability of PSTO2 and its analogues, three types of microorganisms (S. aureus ATCC® 6538, E. coli ATCC® 8739, and MRSA NCTC® 12493) were chosen. Tryptic soy broth (TSB) and Lysogeny broth (LB) were used to culture microorganisms. The peptide was dissolved in an autoclaved PBS solution and diluted into concentrations ranging from 51,200 µM to 100 µM. One µL of peptide solution of each concentration was added into a 96-well plate with 100 µL bacterium at 5 × 10^5 CFU/mL. The plate was incubated at 37 °C for 24 h, with shaking at 200 rpm. After overnight incubation, the planktonic bacteria were washed up. Then, 100 µL of methanol was used to fix the biofilms onto the bottom, and 100 µL of 0.1% crystal violet solution (Sigma-Aldrich, Gillingham, UK) was added to each well to stain the biofilms. After drying, 160 µL of acetic acid (30% in deionised water, Sigma-Aldrich, UK) was added to each well to dissolve the shaded parts. The absorbance was detected with the Synergy HT plate reader at λ = 595 nm.
# (§2) For the MBEC assay, 100 µL of the bacterium of 5 × 10^5 CFU/mL was transferred into an empty 96-well plate, and the plate was incubated at 37 °C for 24 h to obtain the biofilms primarily. Then, the peptide solution from 512 µM to 1 µM was transferred into a corresponding well, followed by 24 h incubation at 37 °C, with shaking at 200 rpm. After this, the plate was handled using the identical method to the plate in the MBIC assay, and the absorbance of each well was detected with the Synergy HT plate reader at λ = 595 nm. The minimum concentration at which the peptide can eradicate the existing biofilm was recorded as the MBEC value.
# MRSA (NCTC 12493) = type: cell-based, methicillin-resistant Staphylococcus aureus
# From the text: (§3) Seven microorganism strains were used to preliminarily evaluate the antimicrobial activity of PSTO2 and its analogues, including Staphylococcus aureus (S. aureus) (ATCC® 6538), methicillin-resistant Staphylococcus aureus (MRSA) (NCTC® 12493), Enterococcus faecalis (E. faecalis) (NCTC® 12697), E. coli (ATCC® 8739), Klebsiella pneumonia (K. pneumonia) (ATCC® 43816), Pseudomonas aeruginosa (P. aeruginosa) (ATCC® CRM 9027), Acinetobacter baumanni (A. baumanni) (BAA® 747), and Candida albicans (C. albicans) (ATCC® 10231). In this study, the strains were cultured in Mueller–Hinton broth (MHB), nutrient broth (NB), and yeast–peptone–dextrose broth (YPD-B) correspondingly at 37 °C, with shaking at 120 rpm. Each peptide was dissolved from 128 μM to 1 μM and mixed with the bacterium at 5 × 10^5 CFU/mL. In this process, bacteria with culture medium were used as the growth control group; PBS was set up as the vehicle control group; sterile culture medium was used as the blank control group; and Norfloxacin at a concentration of 2 mg/mL and amphotericin B at a concentration of 1 mg/mL were set up as the positive control group for bacteria and fungi, respectively.
# (§4) After being incubated for 24 h, a Synergy HT plate reader (Bio-Tek, Shoreline, WA, USA) was used to detect the absorbance of each well in the 96-well plate at λ = 550 nm. The concentration at which no visible turbidity could be recorded was the MIC value. Beginning from the MIC value, 10 µL of solution in each clear well was dropped on the sterile agar plates. The plate was checked the next day for colony formation, and the lowest concentration at which no colony growing was recorded as an MBC value.
# E. coli (ATCC 8739) = type: cell-based, Escherichia coli
# From the text: as §3, §4
# [2] = test system: S. aureus (ATCC 6538) biofilm; type: cell-based, Staphylococcus aureus; settings: ATCC 6538, 24 h
# Protocol: as §1, §2
# horse red blood cells = type: cell-based
# Protocol: To assess the haemolytic activity of PSTO2 and its analogues, 2% fresh defibrinated horse red blood cells (TCS Biosciences Ltd., Buckingham, UK) were acquired after being washed and resuspended in sterile PBS. Each peptide was dissolved in PBS to prepare solutions with concentrations ranging from 2 µM to 1024 µM. Subsequently, 100 µL of each peptide solution was mixed with 100 µL of the red blood cell suspension. The red blood cells treated with 1% triton X-100 and sterile PBS in equivalent volumes were set up as the positive and negative control groups, respectively. Then, all the samples were incubated at 37 °C for 2 h. Thereafter, the samples were centrifuged at 900× g for 10 min. Finally, 100 µL of supernatant of each sample was transferred into a 96-well plate, and the absorbance was recorded by a Synergy HT plate reader (Bio-Tek, Shoreline, WA, USA) at a wavelength of 570. The following equation was used to calculate haemolysis activity:Haemolysis activity = (Sample absorbance − Ab)/(Ap − Ab) × 100% where Ab refers to the mean value of absorbance of the negative control (incubated with PBS only), and Ap refers to the mean absorbance value of the positive control (incubated with triton X-100).
# [3] = test system: K. pneumonia (ATCC 43816); type: cell-based, Klebsiella pneumonia
# From the text: as §3, §4
# C. albicans = type: cell-based, Candida albicans; settings: 24 h
# From the text: as §3, §4
# S. aureus (ATCC 6538) = type: cell-based, Staphylococcus aureus
# From the text: as §3, §4
# A. baumannii (BAA 747) = type: cell-based, Acinetobacter baumanni; settings: BAA 747, 24 h
# From the text: as §3, §4
# [4] = test system: MRSA (ATCC 12493) biofilm; type: cell-based, methicillin-resistant Staphylococcus aureus; settings: ATCC 12493, 24 h
# Protocol: as §1, §2
# [5] = test system: P. aeruginosa (ATCC 9027); type: cell-based, Pseudomonas aeruginosa
# From the text: as §3, §4
# [6] = clear wells plated on agar, no colony
Compound,MBEC [1],MBIC [1],"MBC (MRSA (NCTC 12493); NCTC 12493, 24 h)","MIC (MRSA (NCTC 12493); NCTC 12493, 24 h)","MBC (E. coli (ATCC 8739); ATCC 8739, 24 h)","MIC (E. coli (ATCC 8739); ATCC 8739, 24 h)",MBEC [2],MBIC [2],HC10 (horse red blood cells),"MBC ([3]; ATCC 43816, 24 h)",MBC (C. albicans),MIC (C. albicans),"MBC (S. aureus (ATCC 6538); ATCC 6538, 24 h)","MIC (S. aureus (ATCC 6538); ATCC 6538, 24 h)",MBC (A. baumannii (BAA 747)),MIC (A. baumannii (BAA 747)),MBEC [4],MBIC [4],"MBC ([5]; ATCC 9027, 24 h)","MIC ([5]; ATCC 9027, 24 h)",further results
FLSLIPKAISAVSALAKHL-NH2 [Peptide 7K],64 µM,16 µM,8 µM,4 µM,8 µM,8 µM,32 µM,16 µM,21.97,8/8 μM,64 µM,32 µM,4 µM,4 µM,>128 µM,>128 µM,32 µM,4 µM,32 µM,32 µM,–
CC[C@H](C)[C@H](NC(=O)[C@H](C)NC(=O)[C@@H](CCCCN)NC(=O)[C@@H]1CCCN1C(=O)[C@@H](NC(=O)[C@H](CC(C)C)NC(=O)[C@H](CO)NC(=O)[C@H](CC(C)C)NC(=O)[C@@H](N)Cc1ccccc1)[C@@H](C)CC)C(=O)N[C@H](CCCCN)C(=O)N[C@@H](C)C(=O)N[C@H](C(=O)N[C@@H](CO)C(=O)N[C@@H](C)C(=O)N[C@@H](CC(C)C)C(=O)N[C@@H](C)C(=O)N[C@@H](CCCCN)C(=O)N[C@H](CCCCN)C(=O)N[C@@H](CC(C)C)C(N)=O)C(C)C [Peptide D1] (H-FLSLIP[dK]AI[dK]AVSALAK[dK]L-NH2),–,–,>128 µM,>128 µM,32 µM,32 µM,–,–,Not significant,128 µM,>128 µM,>128 µM,>128 µM,>128 µM,32 µM,32 µM,–,–,32 µM,32 µM,"MIC ([3]; ATCC 43816, 24 h): 128 µM"
FLSLIPKAISAVSALAKKL-NH2 [Peptide 18K],64 µM,32 µM,4 µM,4 µM,4/4 μM,–,32 µM,8 µM,20.59,16/16 μM,128 µM,32 µM,4 µM,2 µM,32/32 μM,–,32 µM,4 µM,64 µM,32 µM,–
CC[C@H](C)[C@H](NC(=O)[C@H](C)NC(=O)[C@@H](CCCCN)NC(=O)[C@@H]1CCCN1C(=O)[C@@H](NC(=O)[C@H](CC(C)C)NC(=O)[C@H](CO)NC(=O)[C@H](CC(C)C)NC(=O)[C@@H](N)Cc1ccccc1)[C@@H](C)CC)C(=O)N[C@H](CCCCN)C(=O)N[C@@H](C)C(=O)N[C@H](C(=O)N[C@H](CCCCN)C(=O)N[C@@H](C)C(=O)N[C@@H](CC(C)C)C(=O)N[C@@H](C)C(=O)N[C@H](CCCCN)C(=O)N[C@H](CCCCN)C(=O)N[C@@H](CC(C)C)C(N)=O)C(C)C [Peptide D2] (H-FLSLIP[dK]AI[dK]AV[dK]ALA[dK][dK]L-NH2),–,–,>128 µM,>128 µM,32 µM,16 µM,–,–,Not significant,128 µM,>128 µM,>128 µM,>128 µM,>128 µM,16 µM,16 µM,–,–,16 µM,16 µM,"MIC ([3]; ATCC 43816, 24 h): 128 µM"
"CC[C@H](C)[C@H](NC(=O)CN)C(=O)NCC(=O)N[C@@H](C)C(=O)N[C@H](C(=O)N[C@@H](CC(C)C)C(=O)N[C@@H](CCCCN)C(=O)N[C@H](C(=O)N[C@@H](CC(C)C)C(=O)N[C@H](C(=O)N[C@H](C(=O)NCC(=O)N[C@@H](CC(C)C)C(=O)N1CCC[C@H]1C(=O)N[C@@H](C)C(=O)N[C@@H](CC(C)C)C(=O)N[C@H](C(=O)N[C@@H](CO)C(=O)N[C@@H](Cc1c[nH]c2ccccc12)C(=O)N[C@H](C(=O)N[C@@H](CCCCN)C(=O)N[C@@H](CCCNC(=N)N)C(=O)N[C@@H](CCCCN)C(=O)N[C@@H](CCCNC(=N)N)C(=O)N[C@@H](CCC(N)=O)C(=O)N[C@@H](CCC(N)=O)C(N)=O)[C@@H](C)CC)[C@@H](C)CC)[C@@H](C)O)[C@@H](C)O)C(C)C)C(C)C [Mellitin, melittin, reference compound]",–,–,–,–,–,–,–,–,–,–,–,–,–,–,–,–,–,–,–,–,"MBC (MRSA (NCTC 12493); [6]): 2 µM; MBC (E. coli (ATCC 8739); [6]): 4 µM; MIC ([3]; 5 × 10^5 CFU/mL, 24 h, absorbance 550 nm): 32 µM; MBC [3, 6]: 32 µM; MBC (S. aureus (ATCC 6538); [6]): 5.7 µg/mL and 2 µM; MBC [5, 6]: 32 µM"
